# Results: US5006515A, “Pharmaceuticals, phosphorus-containing 2-isoxazolines and isoxazoles contained therein” (Hoechst Aktiengesellschaft, priority 1987, dated 1991)
# Read-outs that look alike come from different tables or passages of the source.
# Key:
# [1] = Acute toxicity; set-up: species or system mice; conditions: mouse, in vivo, single dose, mortality within 7 days
# Experimental: The LD50 values were determined by the standard method via the mortality occurring within 7 days in NMRI (Naval Medical Research Institute) mice (6 animals per dose) after a single intraperitoneal (i.p.) or intravenous (i.v.) dose.
# [2] = system: peritoneal macrophages; assay: Stimulation of the release of lysosomal enzymes from peritoneal macrophages (exocytosis); conditions: single i.p. dose of 40 mg/kg; maximum activation by Example 34 = 100%
# [3] = system: active Arthus reaction; assay: Active Arthus reaction in the rat; format: in vivo, Sprague-Dawley rats; conditions: for change in vivo at 35 mg/kg: oral dose 35 mg/kg; for change in vivo at 50 mg/kg: oral dose 50 mg/kg
# Experimental: The experimental animals used were female and male Sprague-Dawley rats with a body weight between 80 and 100 g which received subcutaneous injections into the tail-head of 0.5 ml of an emulsion of pertussis vaccine and ovalbumin in liquid paraffin. After two weeks, the rats were divided into groups each of 8 animals. 24 hours and 1 hour before induction of the Arthus reaction by injection of 0.1 ml of a 0.4% strength ovalbumin solution into the right hind paw, the particular test substance or the pure vehicle (positive control) was administered orally, sodium chloride solution was injected into the left paw. One group of unsensitized animals (negative control group) was likewise treated with ovalbumin in order to be able to rule out nonspecific reactions to the protein. The parameter used for measuring the action of the product was the percentage change in the increase in paw volume compared with that in the control group which was sensitized but untreated (positive control) 4 hours after ovalbumin challenge, when the swelling had reached its maximum.
# [4] = target: leucine aminopeptidase; assay: Inhibition of leucine aminopeptidase; format: biochemical; conditions: substrate L-leucine 4-nitroanilide
# Experimental: The activity of the enzyme aminopeptidase B was determined photometrically using the substrate L-lysine 2-naphthylamide at room temperature. […] In the same way, the inhibition of leucine aminopeptidase was investigated using L-leucine 4-nitroanilide as enzyme substrate. The IC50 values are compiled in Table 6.
# [5] = system: DTH reaction to sheep erythrocytes; assay: Delayed-type hypersensitivity (DTH) reaction to sheep erythrocytes; format: in vivo, female NMRI mice; conditions: single i.p. dose of 40 mg/kg; maximal stimulation by Example 34 = 100%
# Experimental: Groups each comprising 5 female NMRI mice with a body weight of 18 to 20 g were formed, and each animal was given 10^6 or 10^9 sheep red blood cells intravenously. Sheep erythrocytes are regarded in immunology as a standard antigen with which it is possible to check cellular and humoral immunoreactivity, especially the functioning of the T-cell-dependent component of the immune system, the so-called T-helper cells. The test substances were administered, in intraperitoneal doses of 5 to 100 mg/kg in physiological saline, at the same time as the antigen. After 5 days, each animal was given an injection of 2×10^8 sheep erythrocytes into the footpad. 24 hours later, the swelling of the foot was measured. The foot swelling is induced by a skin reaction of the delayed type (DTH reaction) and, as is known to those skilled in the art, is a measure of the cellular immune response (J. Immunol. 101 (1968), 830-845). The test results obtained with the product of Example 34, by way of example, are compiled in Table 7 and illustrate that the compounds of the formula I--administered prophylactically--are able to increase the cellular immune response after immunization with the antigen by stimulation of the T-cell system, with the stimulant action reaching its optimum in this experiment at a dose of 25 mg/kg.
# [6] = Rattus norvegicus, po, 4 h, 4 h after ovalbumin challenge, read-out: Active Arthus reaction % change
# [7] = Rattus norvegicus, po, 4 h, 4 h after ovalbumin challenge
# [8] = Rattus norvegicus, po, 4 h, read-out: Active Arthus reaction % change
# [9] = Rattus norvegicus, po, 4 h, oral dose 100 mg/kg, 4 h after ovalbumin challenge, read-out: Active Arthus reaction % change
compound,measurement,setting,value
"COP(=O)(OC)C1CC(c2ccccc2)=NO1 (racemic) [Example 5, Dimethyl 3-phenyl-2-isoxazolin-5-ylphosphonate]",LD50 at 168 h,[1]; ip,300 to 600 mg/kg
same,Relative stimulation of macrophage activity: Exocytosis,[2],54%
same,Active Arthus reaction % change,"[3]; oral dose 100 mg/kg, 4 h after ovalbumin challenge",-20%
"CP(=O)(NCC(=O)OCc1ccccc1)C1CC(c2ccccc2)=NO1 (stereo not shown) [57/58, N-[3-Phenyl-2-isoxazolin-5-yl(P-methyl)phosphinoyl]glycine benzyl ester]",LD50 at 168 h,[1]; iv,50 to 100 mg/kg
same,change in vivo at 12 mg/kg,"[3]; Rattus norvegicus, po, 4 h, oral dose 12 mg/kg, 4 h after ovalbumin challenge",22%
"CCOP(=O)(OCC)C1CC(c2ccccc2)=NO1 (stereo not shown) [Example 1, Diethyl 3-phenyl-2-isoxazolin-5-ylphosphonate]",Leucine aminopeptidase IC50,[4],65 μug/ml
"CP(C)(=O)C1CC(c2ccccc2)=NO1 (stereo not shown) [Example 17, 3-Phenyl-2-isoxazolin-5-yldimethylphosphine oxide]",LD50 at 168 h,[1]; iv,> 200 mg/kg
same,change in vivo at 35 mg/kg,[3]; [6],-34%
"CCOP(=O)(O)C1CC(c2ccccc2)=NO1 (stereo not shown) [Example 27, Monoethyl 3-phenyl-2-isoxazolin-5-ylphosphonate]",Relative stimulation of the DTH reaction,[5],94%
same,LD50 at 168 h,[1]; iv,> 200 mg/kg
same,change in vivo at 70 mg/kg,"[3]; Rattus norvegicus, oral dose 70 mg/kg, 4 h after ovalbumin challenge, read-out: Active Arthus reaction % change",108%
"CCOP(=O)(O)C1CC(c2ccc(OC)cc2)=NO1 (stereo not shown) [Example 28, Monoethyl ammonium 3-(4-methoxyphenyl)-2-isoxazolin-5-ylphosphonate]",LD50 at 168 h,[1]; iv,> 200 mg/kg
same,change in vivo at 25 mg/kg,"[3]; Rattus norvegicus, oral dose 25 mg/kg, 4 h after ovalbumin challenge, read-out: Active Arthus reaction % change",-12%
Cc1ccc(C2=NOC(P(C)(=O)O)C2)cc1 (stereo not shown) [Example 30],Relative stimulation of the DTH reaction,[5],76%
CP(=O)(O)C1CC(Cc2ccccc2)=NO1 (stereo not shown) [Example 31],LD50 at 168 h,[1]; iv,> 200 mg/kg
same,change in vivo at 50 mg/kg,[3]; [7],66%
CP(=O)(O)C1CC(c2cccc3ccccc23)=NO1 (stereo not shown) [Example 32],LD50 at 168 h,[1]; ip,600 to 1200 mg/kg
same,change in vivo at 50 mg/kg,[3]; [7],42%
"CC(C)(C)C1=NOC(P(=O)(O)O)C1 (stereo not shown) [Example 33, 3-tert.butyl-2-isoxazolin-5-ylphosphonic acid]",LD50 at 168 h,[1]; iv,> 200 mg/kg
same,change in vivo at 100 mg/kg,[3]; [8],-15%
O=P(O)(O)CC1CC(c2ccccc2)=NO1 (stereo not shown) [Example 39],Relative stimulation of the DTH reaction,[5],136%
same,LD50 at 168 h,[1]; ip,600 to 1200 mg/kg
same,change in vivo at 50 mg/kg,[3]; [7],24%
O=P(O)(O)C1CC(c2ccc(Cl)cc2)=NO1 (stereo not shown) [Example 40],LD50 at 168 h,[1]; iv,> 200 mg/kg
same,change in vivo at 50 mg/kg,[3]; [7],-23%
O=P(O)(O)CC1CC(c2ccc(Cl)cc2)=NO1 (stereo not shown) [Example 41],LD50 at 168 h,[1]; ip,150 to 300 mg/kg
same,change in vivo at 100 mg/kg,[3]; [9],26%
O=P(O)(O)C1CC(c2ccccn2)=NO1 (stereo not shown) [Example 42],LD50 at 168 h,[1]; iv,> 200 mg/kg
same,change in vivo at 35 mg/kg,[3]; [6],-33%
O=P(O)(O)C1CC(c2ccncc2)=NO1 (stereo not shown) [Example 43],LD50 at 168 h,[1]; iv,> 200 mg/kg
same,change in vivo at 50 mg/kg,[3]; [7],-14%
O=P(O)(O)C1CC(c2cccc3ccccc23)=NO1 (stereo not shown) [Example 45],LD50 at 168 h,[1]; ip,75 to 150 mg/kg
same,change in vivo at 50 mg/kg,[3]; [7],-25%
same,Leucine aminopeptidase IC50,[4],92 μug/ml
O=P(O)(O)c1cc(-c2ccccc2)no1 [Example 46],LD50 at 168 h,[1]; iv,> 200 mg/kg
same,change in vivo at 50 mg/kg,[3]; [7],-36%
CCCC1=NOC(P(=O)(O)O)C1 (stereo not shown) [Example 47],LD50 at 168 h,[1]; iv,> 200 mg/kg
same,change in vivo at 25 mg/kg,[3]; [8],-35%
same,Leucine aminopeptidase IC50,[4],35 μug/ml
COc1ccc(C2=NOC(P(=O)(O)O)C2)cc1 (stereo not shown) [Example 48],LD50 at 168 h,[1]; ip,300 to 600 mg/kg
same,change in vivo at 100 mg/kg,[3]; [9],10%
same,Leucine aminopeptidase IC50,[4],100 μug/ml
O=P(O)(O)C1CC(Cc2ccccc2)=NO1 (stereo not shown) [Example 49],LD50 at 168 h,[1]; iv,> 200 mg/kg
same,change in vivo at 50 mg/kg,[3]; [7],-59%
O=P(O)(O)c1cc(-c2ccccn2)no1 [Example 50],LD50 at 168 h,[1]; iv,> 200 mg/kg
same,change in vivo at 25 mg/kg,"[3]; Rattus norvegicus, po, 4 h, oral dose 25 mg/kg, 4 h after ovalbumin challenge, read-out: Active Arthus reaction % change",-18%
